Assay results taken from ChEMBL document CHEMBL1146876, “Structurally diverse 5-substituted pyrimidine nucleosides as inhibitors of Leishmania donovani promastigotes in vitro” (Bioorg Med Chem Lett, 2006).

The molecules below were run on Leishmania donovani (assay: Antileishmanial activity against Leishmania donovani LV9 promastigotes by MTT method).
Assay type: functional, organism-based
`CC(=O)OC[C@H]1O[C@@H](n2cc(C=O)c(=O)[nH]c2=O)C[C@@H]1OC(C)=O` gave an IC50 of over 100 µM. Molecule `CCOC(=O)C1=C(N)OC2=C(C(=O)CC(C)(C)C2)C1c1cn([C@H]2C[C@H](O)[C@@H](CO)O2)c(=O)[nH]c1=O` (some centres undefined) has an IC50 of 7.2 µM. Molecule `CC1=NN(c2ccccc2)C(=O)/C1=C(\C)c1cn([C@H]2C[C@H](O)[C@@H](CO)O2)c(=O)[nH]c1=O` has an IC50 of 3 µM. Molecule `CC(=O)OC[C@H]1O[C@@H](n2cc(C3C(C#N)=C(N)OC4=C3C(=O)CC(c3ccc(F)cc3)C4)c(=O)[nH]c2=O)C[C@@H]1OC(C)=O` (some centres undefined) has an IC50 of 95.3 µM. Molecule `CC(=O)OC[C@H]1O[C@@H](n2cc(C3C(C#N)=C(N)OC4=C3C(=O)CC(c3ccccc3)C4)c(=O)[nH]c2=O)C[C@@H]1OC(C)=O` (some centres undefined) has an IC50 of 85.9 µM. In the case of `CC(=O)OC[C@H]1O[C@@H](n2cc(C3C(C#N)=C(N)OC4=C3C(=O)CCC4)c(=O)[nH]c2=O)C[C@@H]1OC(C)=O` (some centres undefined), the IC50 is reported as 68.7 µM. In the case of `N#CC1=C(N)Oc2cc3ccccc3c(O)c2C1c1cn([C@H]2C[C@H](O)[C@@H](CO)O2)c(=O)[nH]c1=O` (some centres undefined), the IC50 is reported as over 100 µM. `CC1CC(=O)C2=C(C1)OC(N)=C(C#N)C2c1cn([C@H]2C[C@H](O)[C@@H](CO)O2)c(=O)[nH]c1=O` (some centres undefined) showed an IC50 of 9.4 µM. `CC1(C)CC(=O)C2=C(C1)OC(N)=C(C#N)C2c1cn([C@H]2C[C@H](O)[C@@H](CO)O2)c(=O)[nH]c1=O` (some centres undefined) showed an IC50 of over 100 µM. In the case of `O=Cc1cn([C@H]2C[C@H](O)[C@@H](CO)O2)c(=O)[nH]c1=O`, the IC50 is reported as 0.9 µM. `CC(=O)OC[C@H]1O[C@@H](n2cc(C3C(C#N)=C(N)OC4=C3C(=O)CC(C)C4)c(=O)[nH]c2=O)C[C@@H]1OC(C)=O` (some centres undefined) gave an IC50 of over 100 µM. In the case of `N#CC1=C(N)OC2=C(C(=O)CCC2)C1c1cn([C@H]2C[C@H](O)[C@@H](CO)O2)c(=O)[nH]c1=O` (some centres undefined), the IC50 is reported as 1.4 µM. `CC(=O)OC[C@H]1O[C@@H](n2cc(C3C(C#N)=C(N)OC4=C3C(=O)CC(c3ccc(Cl)cc3)C4)c(=O)[nH]c2=O)C[C@@H]1OC(C)=O` (some centres undefined) gave an IC50 of 80.2 µM. With `CC(=O)OC[C@@H]1O[C@H](n2cc(C3C(C#N)=C(N)OC4CC(c5ccc(N(C)C)cc5)CC(=O)C43)c(=O)[nH]c2=O)C[C@H]1OC(C)=O` (some centres undefined) the IC50 was 100 µM. `CC(=O)OC[C@H]1O[C@@H](n2cc(C3C(C#N)=C(N)Oc4cc5ccccc5c(O)c43)c(=O)[nH]c2=O)C[C@@H]1OC(C)=O` (some centres undefined) gave an IC50 of over 100 µM. Work on `CCOC(=O)/C(C#N)=C/c1cn([C@H]2C[C@H](O)[C@@H](CO)O2)c(=O)[nH]c1=O` yielded an IC50 of 1.9 µM. Molecule `CN(C)c1ccc2c(c1)OC(N)=C(C#N)C2c1cn([C@H]2C[C@H](O)[C@@H](CO)O2)c(=O)[nH]c1=O` (some centres undefined) has an IC50 of over 100 µM. With `CCOC(=O)C1=C(N)OC2=C(C(=O)CCC2)C1c1cn([C@H]2C[C@H](O)[C@@H](CO)O2)c(=O)[nH]c1=O` (some centres undefined) the IC50 was 10.5 µM. Molecule `N#CC1=C(N)OC2=C(C(=O)CC(c3ccc(F)cc3)C2)C1c1cn([C@H]2C[C@H](O)[C@@H](CO)O2)c(=O)[nH]c1=O` (some centres undefined) has an IC50 of 8.4 µM. `CC(=O)OC[C@H]1O[C@@H](n2cc(/C=C\C#N)c(=O)[nH]c2=O)C[C@@H]1OC(C)=O` showed an IC50 of over 100 µM. Work on `N#CC1=C(N)OC2=C(C(=O)CC(c3ccc(Cl)cc3)C2)C1c1cn([C@H]2C[C@H](O)[C@@H](CO)O2)c(=O)[nH]c1=O` (some centres undefined) yielded an IC50 of over 100 µM. With `CC(=O)OC[C@H]1O[C@@H](n2cc(C=C(C#N)C#N)c(=O)[nH]c2=O)C[C@@H]1OC(C)=O` the IC50 was 30.1 µM. For `C[C@@H]1[C@H](O)[C@@H](C)/C=C/C=C/C=C/C=C/C=C/C=C/C=C/[C@H](O[C@@H]2O[C@H](C)[C@@H](O)[C@H](N)[C@@H]2O)C[C@@H]2O[C@](O)(C[C@@H](O)C[C@@H](O)[C@H](O)CC[C@@H](O)C[C@@H](O)CC(=O)O[C@H]1C)C[C@H](O)[C@H]2C(=O)O` [AMPHOTERICIN B], the IC50 was 0.1 µM. Work on `N#CC(C#N)=Cc1cn([C@H]2C[C@H](O)[C@@H](CO)O2)c(=O)[nH]c1=O` yielded an IC50 of 1.5 µM. `Cc1cn([C@H]2C[C@H](N=[N+]=[N-])[C@@H](CO)O2)c(=O)[nH]c1=O` [ZIDOVUDINE] showed an IC50 of 3.4 µM. In the case of `CCOC(=O)/C(C#N)=C/c1cn([C@H]2C[C@H](OC(C)=O)[C@@H](COC(C)=O)O2)c(=O)[nH]c1=O`, the IC50 is reported as 39.1 µM. Work on `CC(=O)OC[C@H]1O[C@@H](n2cc(C3C(C#N)=C(N)OC4=C3C(=O)CC(C)(C)C4)c(=O)[nH]c2=O)C[C@@H]1OC(C)=O` (some centres undefined) yielded an IC50 of 80.4 µM. `CC(=O)OC[C@H]1O[C@@H](n2cc(/C=C/C#N)c(=O)[nH]c2=O)C[C@@H]1OC(C)=O` gave an IC50 of over 100 µM. With `N#Cc1cn([C@H]2C[C@H](O)[C@@H](CO)O2)c(=O)[nH]c1=O` the IC50 was over 100 µM. In the case of `N=C(N)c1ccc(OCCCCCOc2ccc(C(=N)N)cc2)cc1` [PENTAMIDINE], the IC50 is reported as 6.6 µM. `CCOC(=O)C1=C(N)OC2=C(C(=O)CC(C)(C)C2)C1c1cn([C@H]2C[C@H](OC(C)=O)[C@@H](COC(C)=O)O2)c(=O)[nH]c1=O` (some centres undefined) gave an IC50 of over 100 µM. For `CN(C)c1ccc(C2CC(=O)C3C(C2)OC(N)=C(C#N)C3c2cn([C@@H]3C[C@@H](O)[C@H](CO)O3)c(=O)[nH]c2=O)cc1` (some centres undefined), the IC50 was 6.2 µM. With `COC(=O)/C(C#N)=C/c1cn([C@H]2C[C@H](O)[C@@H](CO)O2)c(=O)[nH]c1=O` the IC50 was 7.3 µM. In the case of `N#C/C=C/c1cn([C@H]2C[C@H](O)[C@@H](CO)O2)c(=O)[nH]c1=O`, the IC50 is reported as 92 µM.
